Experimental data taken from the supplement of paper PMC10307832.

Columns and labels:
Experiment in all cases: relative viability (nuclei count vs DMSO), 5 days (fraction); higher = more cells survive
AZ3146 + Pictilisib = compound: CN1CCC(CC1)OC2=CC(=C(C=C2)NC3=NC=C4C(=N3)N(C(=O)N4C)C5CCCC5)OC [AZ3146] + CS(=O)(=O)N1CCN(Cc2cc3nc(-c4cccc5[nH]ncc45)nc(N4CCOCC4)c3s2)CC1 [Pictilisib] (partner 1 µM)
In short: (§1)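 Relative viability was taken as the ratio of nuclei in treated wells to nuclei in vehicle wells. Lung cancer cell lines in 1536-well plates received compounds by pin tool one day after seeding, either one drug alone or a fixed anchor-drug dose plus five library-drug doses (not always all listed) in √10 steps. Nuclei were counted on 4× images after 5 days of treatment, and values are medians of duplicate plates.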

GSK-J4 + Phenformin = compound: CCOC(=O)CCNc1cc(N2CCc3ccccc3CC2)nc(-c2ccccn2)n1 [GSK-J4] + N=C(N)NC(=N)NCCc1ccccc1 [Phenformin] (partner 250 µM)
In short: as §1

AZ3146 + Trametinib = compound: CN1CCC(CC1)OC2=CC(=C(C=C2)NC3=NC=C4C(=N3)N(C(=O)N4C)C5CCCC5)OC [AZ3146] + CC(=O)Nc1cccc(-n2c(=O)n(C3CC3)c(=O)c3c(Nc4ccc(I)cc4F)n(C)c(=O)c(C)c32)c1 [Trametinib] (partner 0.02 µM)
In short: as §1

AZ3146 + Vorinostat = compound: CN1CCC(CC1)OC2=CC(=C(C=C2)NC3=NC=C4C(=N3)N(C(=O)N4C)C5CCCC5)OC [AZ3146] + O=C(CCCCCCC(=O)Nc1ccccc1)NO [Vorinostat] (partner 1 µM)
In short: as §1

Cell Line | relative viability (AZ3146 + Pictilisib; first compound 0.08 µM) | relative viability (AZ3146 + Pictilisib; first compound 0.253 µM) | relative viability (AZ3146 + Pictilisib; first compound 0.8 µM) | relative viability (AZ3146 + Pictilisib; first compound 2.53 µM) | relative viability (AZ3146 + Pictilisib; first compound 8 µM) | relative viability (GSK-J4 + Phenformin; first compound 0.5 µM) | relative viability (GSK-J4 + Phenformin; first compound 1.581 µM) | relative viability (GSK-J4 + Phenformin; first compound 5 µM) | relative viability (GSK-J4 + Phenformin; first compound 15.81 µM) | relative viability (GSK-J4 + Phenformin; first compound 50 µM) | relative viability (AZ3146 + Trametinib; first compound 0.08 µM) | relative viability (AZ3146 + Trametinib; first compound 0.253 µM) | relative viability (AZ3146 + Trametinib; first compound 0.8 µM) | relative viability (AZ3146 + Trametinib; first compound 2.53 µM) | relative viability (AZ3146 + Trametinib; first compound 8 µM) | relative viability (AZ3146 + Vorinostat; first compound 0.08 µM) | relative viability (AZ3146 + Vorinostat; first compound 0.253 µM) | relative viability (AZ3146 + Vorinostat; first compound 0.8 µM) | relative viability (AZ3146 + Vorinostat; first compound 2.53 µM) | relative viability (AZ3146 + Vorinostat; first compound 8 µM)
NCI-H1734 | 0.501 | 0.522 | 0.418 | 0.474 | 0.499 | 0.425 | 0.365 | 0.328 | 0.332 | 0.31 | 0.641 | 0.663 | 0.594 | 0.662 | 0.62 | 0.646 | 0.886 | 0.782 | 0.795 | 0.584
NCI-H1755 | 0.421 | 0.433 | 0.359 | 0.441 | 0.442 | 0.606 | 0.5 | 0.367 | 0.49 | 0.56 | 0.674 | 0.787 | 0.714 | 0.783 | 0.785 | 0.71 | 0.804 | 0.599 | 0.789 | 0.765
NCI-H1793 | 0.298 | 0.376 | 0.278 | 0.469 | 0.261 | 0.446 | 0.29 | 0.281 | 0.294 | 0.228 | 0.374 | 0.419 | 0.393 | 0.515 | 0.418 | 0.616 | 0.682 | 0.613 | 0.942 | 0.573
NCI-H1915 | 0.748 | 0.911 | 1.11 | 1 | 1.07 | 0.36 | 0.327 |  | 0.369 | 0.388 | 0.312 | 0.303 | 0.294 | 0.306 | 0.319 | 0.371 | 0.513 | 0.535 | 0.559 | 0.498
NCI-H1944 |  | 0.34 | 0.323 | 0.376 | 0.364 | 0.2 | 0.193 | 0.124 | 0.155 | 0.174 | 0.375 | 0.424 | 0.435 | 0.45 | 0.459 | 0.425 | 0.579 | 0.606 | 0.616 | 0.543
NCI-H1975 | 0.266 | 0.343 | 0.305 | 0.303 | 0.304 | 0.415 | 0.417 | 0.288 | 0.36 | 0.428 | 0.315 | 0.351 | 0.29 | 0.348 | 0.306 | 0.67 | 0.736 | 0.735 | 0.697 | 0.327
NCI-H1993 | 0.806 | 0.797 | 0.788 | 0.839 | 0.762 | 0.476 | 0.545 | 0.555 | 0.548 | 0.456 | 0.562 | 0.508 | 0.472 | 0.519 | 0.469 | 0.724 | 1.03 | 1.06 | 1.05 | 0.559
NCI-H2009 | 0.891 | 0.962 | 0.886 | 0.917 | 0.605 | 0.456 | 0.419 | 0.354 | 0.341 | 0.222 | 0.286 | 0.301 | 0.271 | 0.273 | 0.238 | 0.635 | 0.673 | 0.743 | 0.704 | 0.543
NCI-H2023 | 0.241 | 0.285 | 0.19 | 0.265 | 0.202 | 0.441 |  | 0.395 | 0.35 | 0.342 | 0.55 | 0.473 | 0.616 | 0.538 | 0.442 | 0.422 | 0.991 | 0.407 | 0.471 | 0.193
NCI-H2085 | 0.486 | 0.433 | 0.506 | 0.547 | 0.438 | 0.724 | 0.674 | 0.671 | 0.508 | 0.582 | 0.495 | 0.57 | 0.506 | 1.03 | 0.403 | 0.75 | 0.786 | 0.779 | 0.789 | 0.701
NCI-H2087 | 1.14 | 0.926 | 0.669 | 0.968 | 0.847 | 0.466 |  | 0.541 | 0.452 | 0.456 | 0.201 | 0.196 | 0.214 | 0.214 | 0.182 | 0.649 | 0.505 | 0.838 | 0.668 | 0.367
NCI-H2126 | 0.41 | 0.483 | 0.465 | 0.517 | 0.496 | 0.537 | 0.505 | 0.55 | 0.485 | 0.456 | 0.58 | 0.553 | 0.503 | 0.534 | 0.547 | 0.504 | 0.743 | 0.709 | 0.835 | 0.66
NCI-H2170 | 0.297 | 0.315 | 0.327 | 0.297 | 0.243 | 0.38 | 0.352 | 0.341 | 0.387 | 0.275 | 0.888 | 1.04 | 0.861 | 0.928 | 0.859 | 0.815 | 0.763 | 0.854 | 0.867 | 0.751
NCI-H2228 | 0.412 | 0.306 | 0.349 | 0.282 | 0.314 | 0.331 | 0.205 | 0.42 | 0.244 | 0.355 | 0.415 | 0.539 | 0.33 | 0.44 | 0.455 | 0.589 | 0.695 | 0.874 | 0.956 | 0.674
NCI-H2347 | 0.604 | 0.542 | 0.654 | 1.12 | 0.422 | 0.324 | 0.384 | 0.507 |  | 0.499 | 0.295 | 0.308 | 0.326 | 0.293 | 0.326 | 0.523 | 0.562 | 0.574 | 0.717 | 0.596
NCI-H2405 | 0.533 |  | 0.418 | 0.451 | 0.58 | 0.442 | 0.386 |  | 0.335 | 0.366 | 0.731 | 0.537 | 0.666 | 0.663 | 0.676 | 0.799 | 0.969 | 1.04 | 1.14 | 0.927
